Source: US10960020B2, “Modulation of PCSK9 and LDLR through DRP1 inhibition” (THE BRIGHAM AND WOMEN'S HOSPITAL, INC., priority 2016, dated 2021)

Columns and labels:
hepatocyte cytoskeleton = assay: Cytoskeleton gene panel and actin/microtubule confocal immunofluorescence; assay type: cell-based; details: HepG2 and primary human hepatocytes, Mdivi-1 50 μM, 24 hours
Protocol: Filamentous actin was stained using CytoPainter Phallodin iFluor 555 Reagent (2 μl phalloidin in 2000 μl PBS with 1% BSA; Abcam), with a 60 minute incubation at room temperature. Slides were incubated with anti-alpha tubulin (1:200, Abcam, ab15246), PDI (1:100; 3501, Cell Signaling Technology), and anti-mitochondria (ab92824, Abcam) for 2 hours at room temperature or overnight at 4° C., followed by incubation with Alexa Fluor 488-labelled secondary antibody (1:200, Thermo Fisher Scientific). Nuclear staining was performed with DAPI (Thermo Fisher Scientific). Prior to visualization 200 μL PBS was added to each well. Liver tissue and cells were examined using a confocal microscope Al (Nikon Instruments Inc., Melville, N.Y.), and all images were processed with Elements 3.20 software (Nikon Instruments Inc.). Human cells and mouse liver was homogenized with TriZolTM (Life Technologies, Grand Island, N.Y.) to isolate RNA. […]

BECLIN1 = BECLIN1 mRNA and protein; assay type: cell-based, human; details: 24 hours
Source text: Human cells and mouse liver was homogenized with TriZolTM (Life Technologies, Grand Island, N.Y.) to isolate RNA. QuantiTectTM Reverse Transcription Kit (Qiagen, Hilden, Germany) was used for reverse transcription on total RNA. cDNA was generated using the Quanta gScriptTM cDNA Synthesis Kit (Bioscience Inc., Gaithersburg, Md.). mRNA levels were quantified on a 7900HT real-time PCR system (Thermo Fisher Scientific) using TaqManTM real-time PCR with the following probes: Hs02758991_g1 (human GAPDH); Mm99999915_g1 (mouse Gapdh); Hs00236329 m1 (human BCL2L1); Hs00247147_m1 (human DRP1); Hs00545399_m1 (human PCSK9); Mm01263610_m1 (mouse Pcsk9); Hs00168352_m1 (human HMGCR); […]); Hs00181192_m1 (human LDLR); Mm00440169_m1 (mouse Ldlr); Hs01088691_m1 (human SREBP1); Mm00550338_m1 (mouse Srebp1); Hs00231674_m1 (human SREBP1a); custom primer (human SREBP1c); Hs01081784_m1 (human SREBP2); Mm01306292_m1 (mouse Srebp2); Hs01005622_m1 (human FASN); […]); Hs00167041_m1 (human HNF1A); Mm00493434_m1 (mouse Hnf1a); Hs00171168 (human APOE); Hs01059118_m1 (human ABCA1); Hs01103582_s1 (human JUN). Mouse SREBP-1c was analyzed by SYBERTM green PCR with the following primers: [NT] […] Protein concentrations were determined by the Pierce BCA AssayTM (Thermo Fisher Scientific). […] Protein levels were normalized to β-ACTIN, α-TUBULIN, or LAMIN A/C with the use of NIH ImageJ software for quantification.

[1] = tested on: diabetic apolipoprotein E-deficient mice; details: cited from earlier work

For COc1cc(-n2c(S)nc3ccccc3c2=O)c(Cl)cc1Cl [Mdivi-1, 3-(2,4-Dichloro-5-methoxyphenyl)-2,3-dihydro-2-thioxo-4(1H)-quinazolinone], the hepatocyte cytoskeleton (hepatocyte cytoskeleton) was “did not alter”, the BECLIN1 protein abundance (BECLIN1; HepG2, Mdivi-1 50 μM) was “did not alter” and the “BECLIN1 mRNA” value (BECLIN1; human hepatocytes, Mdivi-1 50 μM) was “did not alter”. The “oxidative stress and inflammation” value [1] was “reduces”.
